Measured values: US6130239A, “4-Alkenyl- and 4-alkynyloxindoles” (Hoffmann-La Roche Inc., priority 1999, dated 2000)
pIC50: −log10 of the molar value. Where a name gives a salt, the structure may show the parent alone.

Columns and labels:
Cyclin E/CDK2 = biological target: T1, Cyclin E/CDK2 (Homo sapiens, UniProt P24941); test: CDK2 FlashPlate Assay (inhibition of Rb phosphorylation by Cyclin E/CDK2); assay type: biochemical; conditions: for pIC50: Table IA, recombinant human Cyclin E/CDK2, Rb substrate, 25 minutes room temperature
T1 construct: made in house; host or cells: insect cells

MDA-MB-435 = test: Cell-based antiproliferative (MTT) assay, MDA-MB-435 breast carcinoma line; conditions: Homo sapiens, MDA-MB-435, 120 h; 5 days post addition of test compound; mostly one experiment, average where repeated; read-out: MDA-MB435 IC50
Method: The estrogen receptor negative epithelial breast carcinoma line (MDA-MB-435) was purchased from American Type Cell Culture Collection (ATCC; Rockville, Md.) and was grown in the medium recommended by ATCC. For analysis of the effect of the test compounds on growth of these cells, the cells were plated at 2000 cells per well in a 96-well tissue culture plate, and were incubated overnight at 37° C. with 5% CO2. The next day, the test compounds were dissolved in 100% dimethyl sulfoxide (DMSO) to yield a 10 mM stock solution. Each compound was diluted with sterile medium to 1 mM in a sufficient quantity to yield a final concentration of 120 μM. The compounds were then serially diluted in medium with 1.2% DMSO. One-fourth final volume of the diluted compounds was transferred to 96 well plates. Test compounds were assayed in duplicate. DMSO was added to a row of "control cells" such that the final concentration of DMSO in each well was 0.3%. Wells to which no cells were added served as the "blank." Wells to which no inhibitor was added served as "no inhibitor control". The plates were returned to the incubator, and 5 days post addition of test compound, were analyzed as described below. […] MTT) was added to each well to yield a final concentration of 1 mg/mL. The plates were then incubated at 37° C. for 3 hours. The plates were centrifuged at 1000 rpm for 5 minutes prior to aspiration of the MTT-containing medium. The MTT-containing medium was then removed and 100 μL 100% ethanol was added to each well to dissolve the resulting formazan metabolite. To ensure complete dissolution, plates were shaken for 15 minutes at room temperature. Absorbencies were read in a microtiter plate reader (Molecular Dynamics) at a wavelength of 570 nm with a 650 nm reference. Percent inhibition was calculated by subtracting the absorbance of the blank (no cell) wells from all wells, then subtracting the division of the average absorbance of each test duplicate by the average of the controls from 1.00. Inhibitory concentrations (IC50) were determined from the linear regression of a plot of the logarithm of the concentration versus the percent inhibition.

SW480 = test: Cell-based antiproliferative (MTT) assay, SW480 colon carcinoma line; conditions: Homo sapiens, SW480, 96 h; 4 days post addition of test compound
Method: The estrogen receptor negative epithelial breast carcinoma line (MDA-MB-435) was purchased from American Type Cell Culture Collection (ATCC; Rockville, Md.) and was grown in the medium recommended by ATCC. For analysis of the effect of the test compounds on growth of these cells, the cells were plated at 2000 cells per well in a 96-well tissue culture plate, and were incubated overnight at 37° C. with 5% CO2. The next day, the test compounds were dissolved in 100% dimethyl sulfoxide (DMSO) to yield a 10 mM stock solution. Each compound was diluted with sterile medium to 1 mM in a sufficient quantity to yield a final concentration of 120 μM. The compounds were then serially diluted in medium with 1.2% DMSO. One-fourth final volume of the diluted compounds was transferred to 96 well plates. Test compounds were assayed in duplicate. DMSO was added to a row of "control cells" such that the final concentration of DMSO in each well was 0.3%. Wells to which no cells were added served as the "blank." Wells to which no inhibitor was added served as "no inhibitor control". The plates were returned to the incubator, and 5 days post addition of test compound, were analyzed as described below.
3-(4,5-Dimethylthiazole-2-yl)-2,5-diphenyl-2H-tetrazolium bromide (thiazolyl blue; MTT) was added to each well to yield a final concentration of 1 mg/mL. The plates were then incubated at 37° C. for 3 hours. The plates were centrifuged at 1000 rpm for 5 minutes prior to aspiration of the MTT-containing medium. The MTT-containing medium was then removed and 100 μL 100% ethanol was added to each well to dissolve the resulting formazan metabolite. To ensure complete dissolution, plates were shaken for 15 minutes at room temperature. Absorbencies were read in a microtiter plate reader (Molecular Dynamics) at a wavelength of 570 nm with a 650 nm reference. Percent inhibition was calculated by subtracting the absorbance of the blank (no cell) wells from all wells, then subtracting the division of the average absorbance of each test duplicate by the average of the controls from 1.00. Inhibitory concentrations (IC50) were determined from the linear regression of a plot of the logarithm of the concentration versus the percent inhibition.
The colon carcinoma line SW480 also was obtained from the ATCC and was tested according to the same protocol provided above with the following modification: cell line SW480 was plated at 1000 cells per well and analyzed at 4 days post addition of test compound.

SMILES | pIC50 (Cyclin E/CDK2) | pIC50 (MDA-MB-435) | pIC50 (SW480) | inhibition at 1 µM (Cyclin E/CDK2; Table IB, concentration ≤1.0 μM) [%]
CCOC(=O)C(CC#Cc1c(F)ccc2c1/C(=C/c1[nH]cnc1C)C(=O)N2)NC(C)=O (racemic) [AAA, rac-(Z)-2-(Acetylamino)-5-[5-fluoro-2,3,dihydro-3-[(4-methyl-1H-imidazol-5-yl)methylene]-2-oxo-1H-indol-4-yl]-4-pentynoic acid ethyl ester] | > 5.40 | > 5.46 |  | 
CCC(O)C#Cc1c(F)ccc2c1/C(=C/c1[nH]cnc1C)C(=O)N2 (racemic) [OO, rac-(Z)-1,3-Dihydro-5-fluoro-4-(3-hydroxy-1-pentynyl)-3-[(4-methyl-1H-imidazol-5-yl)methylene]-2H-indol-2-one] | > 5.40 | > 5.46 | > 6.00 | 
CCC(O)C#Cc1c([N+](=O)[O-])ccc2c1/C(=C/c1[nH]cnc1C)C(=O)N2 (racemic) [PP, rac-(Z)-1,3-Dihydro-4-(3-hydroxy-1-pentynyl)-3-[(4-methyl-1H-imidazol-5-yl)methylene]-5-nitro-2H-indol-2-one] | > 5.40 | > 5.46 | > 6.00 | 
Cc1nc[nH]c1/C=C1\C(=O)Nc2ccc(F)c(C#CCC(C)O)c21 (racemic) [TT, rac-(Z)-1,3-Dihydro-5-fluoro-4-(4-hydroxy-1-pentynyl)-3-[(4-methyl-1H-imidazol-5-yl)methylene]-2H-indol-2-one, trifluoroacetate salt] | > 5.40 | > 5.46 |  | 
CCC(N)(C#Cc1c(F)ccc2c1/C(=C/c1[nH]cnc1C)C(=O)N2)CC [CCC, (Z)-4-[3-Amino-3-ethyl-1-pentynyl]-1,3-dihydro-5-fluoro-3-[(4-methyl-1H-imidazol-5-yl)methylene]-2H-indol-2-one] |  |  | > 6.00 | 
CCN(CC)CC#Cc1c(F)ccc2c1/C(=C/c1[nH]cnc1C)C(=O)N2 [Compound BBB, (Z)-4-[3-(N,N-Diethylamino)-1-propynyl]-1,3-dihydro-5-fluoro-3-[(4-methyl-1H-imidazol-5-yl)methylene]-2H-indol-2-one] | > 5.40 | > 5.46 |  | 
Cc1nc[nH]c1/C=C1\C(=O)Nc2ccc(F)c(C#CC(C)(C)N)c21 [VV, (Z)-4-[3-Amino-3-methyl-1-butynyl]-1,3-dihydro-5-fluoro-3-[(4-methyl-1H-imidazol-5-yl)methylene]-2H-indol-2-one] | > 5.40 | > 5.46 |  | 
Cc1nc[nH]c1/C=C1\C(=O)Nc2ccc(F)c(C#CCN3CCOCC3)c21 [XX, (Z)-1,3-Dihydro-5-fluoro-3-[(4-methyl-1H-imidazol-5-yl)methylene]-4-[3-(4-morpholinyl)-1-propynyl]-2H-indol-2-one] | > 5.40 | > 5.46 |  | 

Other lines, results leading:

pIC50 (Cyclin E/CDK2) | pIC50 (MDA-MB-435) | pIC50 (SW480) | inhibition at 1 µM (Cyclin E/CDK2; Table IB, concentration ≤1.0 μM) [%] | SMILES
> 5.40 | > 5.46 |  |  | Cc1nc[nH]c1/C=C1\C(=O)Nc2ccc(F)c(C#CCO)c21 [QQ, (Z)-1,3-Dihydro-5-fluoro-4-(3-hydroxy-1-propynyl)-3-[(4-methyl-1H-imidazol-5-yl)methylene]-2H-indol-2-one, trifluoroacetate salt]
> 5.40 | > 5.46 | > 6.00 |  | CNCC#Cc1c(F)ccc2c1/C(=C/c1[nH]cnc1C)C(=O)N2 [RR, (Z)-1,3-Dihydro-5-fluoro-4-[3-(N-methylamino)-1-propynyl]-3-[(4-methyl-1H-imidazol-5-yl)methylene]-2H-indol-2-one]
> 5.40 | > 5.46 |  |  | Cc1nc[nH]c1/C=C1\C(=O)Nc2ccc(F)c(C#CCN(C)C)c21 [UU, (Z)-1,3-Dihydro-4-[3-(N,N-dimethylamino)-1-propynyl]-5-fluoro-3-[(4-methyl-1H-imidazol-5-yl)methylene]-2H-indol-2-one]
> 5.40 | > 5.46 |  |  | Cc1nc[nH]c1/C=C1\C(=O)Nc2ccc(F)c(C#CCOC(N)=O)c21 [WW, (Z)-Carbamic acid 3-[2,3-dihydro-3-[(4-methyl-1H-imidazol-5-yl)methylene]-5-fluoro-2-oxo-1H-indol-4-yl]-2-propynyl ester]
 | > 5.46 |  | > 90 | COC(=O)NCC#Cc1c(F)ccc2c1/C(=C/c1[nH]cnc1C)C(=O)N2 [YY, (Z)-[3-[2,3-Dihydro-5-fluoro-3-[(4-methyl-1H-imidazol-5-yl)methylene]-2-oxo-1H-indol-4-yl]-2-propynyl]carbamic acid methyl ester]
